Assay results published in patent US11066692B2, “Real-time monitoring” (PROMEGA CORPORATION, priority 2012, dated 2021).

Columns and labels:
[1] = system: reactive oxygen species (ROS) in A549 cells; assay: Real-time monitoring of reactive oxygen species (ROS); format: cell-based; conditions: 200 μM, 10, 25 or 50 μM PBI-4759, 40 ng/ml NANOLUC
Experimental: A549 cells were plated at 1,000 cells/well into wells of a 384-well plate and incubated overnight. Then, either 10, 25, or 50 μM of a pro-furimazine hydrogen peroxide substrate, PBI-4759, and 40 ng/ml NANOLUC luciferase protein sensor were added to the cells. Menadione (200 μM), a known ROS inducer, or a vehicle control (DMSO) was added to the cells. Luminescence was monitored over time using a Tecan M1000 plate reader.

Cardiomyocyte cells = assay: Real-time measuring of drug induced changes in viability; format: cell-based; conditions: 200 μg/ml final, after multiple days of cell growth; 40 uM PBI-4600, 100 ng/ml NANOLUC
Experimental: Cardiomyocyte cells were plated and grown in media containing 40 uM PBI-4600 pro-substrate and 100 ng/ml NANOLUC luciferase protein sensor in a 37° C., 5% CO2 incubator. At various time points, luminescence was monitored on a Tecan M1000 plate reader. After multiple days of cell growth, digitonin was added to a final concentration of 200 μg/ml. Luminescence was read continually, starting immediately after digitonin addition.

[2] = Stability of pro-furimazine substrate PBI-4600 in cell culture media (HPLC purity); format: physicochemical; conditions: 50 μM in RPMI cell culture media, room temperature or 37° C., up to 190 hours
Experimental: PBI-4600 (50 μM) was incubated in RPMI cell culture media at room temperature (RT) or 37° C. for increasing time points, up to 190 hours. HPLC analysis was performed to determine the purity of PBI-4600 at various time points.

A549 cells = assay: Measuring cell death in real-time; format: cell-based; conditions: 1% final concentration, A549 cells 1,000 cells/well; 40 μM PBI-4600, 100 ng/ml NANOLUC
Experimental: A549 cells were plated into wells of a 384-well plate at 1,000 cells/well in the presence of 40 μM PBI-4600 pro-substrate and 100 ng/ml NANOLUC luciferase protein sensor. The cells were incubated and the luminescence signal was monitored at various time points on a Tecan M1000 plate reader. Triton X-100 was then added to a final concentration of 1%, and compared to control cells that received media only. Luminescence was continually monitored.

[3] = system: caspase activation in A549 cells; assay: Real-time monitoring of caspase activation; format: cell-based; conditions: 4 μM final concentration, 50 μM PBI-3741, 40 ng/ml NANOLUC
Experimental: A549 cells were plated at 1,000 cells/well into wells of a 384-well assay plate. 50 μM PBI-3741 (a pro-furimazine caspase substrate) and 40 ng/ml NANOLUC luciferase enzyme were added to the cells. To induce apoptosis, staurosporine was added to the cells at a 4 μM final concentration. The induction of apoptosis and activation of caspase were measured in real-time.

[4] = Protein sensor stability in cell culture; format: physicochemical; conditions: 40 ng/ml in A549 cell culture with 50 μM PBI-4600; signal compared with freshly added sensor
Experimental: A549 cells were plated at 250 cells/well into wells of a 384-well assay plate. 50 μM PBI-4600 pro-substrate and 40 ng/ml NANOLUC luciferase protein sensor were added to the cell culture and incubated for 72 hours. After incubation, 40 ng/ml NANOLUC luciferase protein sensor was added to the cell culture, and the signal was monitored 1.5 hours later.

CC1=CC(=O)c2ccccc2C1=O [menadione, Menadione]
time at which maximum luminescence signal was reached after addition [1]: 5 h

C[C@@H]1CC[C@@]2(OC1)O[C@H]1[C@@H](O)[C@H]3[C@@H]4CC[C@H]5C[C@@H](O[C@@H]6O[C@H](CO)[C@H](O[C@@H]7O[C@H](CO)[C@@H](O)[C@H](O[C@@H]8OC[C@@H](O)[C@H](O)[C@H]8O)[C@H]7O[C@@H]7O[C@H](CO)[C@H](O)[C@H](O[C@@H]8O[C@H](CO)[C@@H](O)[C@H](O)[C@H]8O)[C@H]7O)[C@H](O)[C@H]6O)[C@H](O)C[C@]5(C)[C@H]4CC[C@]3(C)[C@H]1[C@@H]2C [digitonin]
change in luminescence signal (cell viability) after addition (Cardiomyocyte cells): rapid decrease in signal

CC1=C(C)C(=O)C(C(C)(C)CC(=O)N(C)CCN(C)C(=O)Oc2c(Cc3ccco3)nc3c(Cc4ccccc4)nc(-c4ccccc4)cn23)=C(C)C1=O [PBI-4600]
purity of PBI-4600 (HPLC) after incubation [2]: greater than 90%

Triton X-100
change in luminescence signal (cell viability) after addition (A549 cells): rapid decrease in signal

CN[C@@H]1C[C@H]2O[C@@](C)([C@@H]1OC)n1c3ccccc3c3c4c(c5c6ccccc6n2c5c31)C(=O)NC4 [staurosporine]
change in luminescence (caspase activation) during treatment [3]: increase in luminescence

B1: NANOLUC luciferase: modified, enhanced luciferase enzyme from Oplophorus, Promega Corporation, SEQ ID NO: 1 (protein)
chain: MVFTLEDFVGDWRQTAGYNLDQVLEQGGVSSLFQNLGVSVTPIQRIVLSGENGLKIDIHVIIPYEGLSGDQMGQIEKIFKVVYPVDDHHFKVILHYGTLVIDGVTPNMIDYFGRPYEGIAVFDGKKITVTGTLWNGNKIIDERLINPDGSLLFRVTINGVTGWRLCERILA
time stable in cell culture conditions [4]: at least 72 h
